From patent publication US5945509A, “Glutamate receptor compositions and method” (The Salk Institute for Biological Studies, priority 1995, dated 1999)
Read-outs that look alike come from different tables or passages of the source.

Assays:
[1] = target: T1, GluR1 (Rattus norvegicus, UniProt P19490); assay: Electrophysiological recording in Xenopus oocytes injected with GluR1 in vitro RNA; assay type: cell-based
T1 construct: expressed in transfected cells; host or cells: Xenopus oocytes injected with in vitro transcribed pGluR1 sense RNA
T1 sequence (P19490 19-907): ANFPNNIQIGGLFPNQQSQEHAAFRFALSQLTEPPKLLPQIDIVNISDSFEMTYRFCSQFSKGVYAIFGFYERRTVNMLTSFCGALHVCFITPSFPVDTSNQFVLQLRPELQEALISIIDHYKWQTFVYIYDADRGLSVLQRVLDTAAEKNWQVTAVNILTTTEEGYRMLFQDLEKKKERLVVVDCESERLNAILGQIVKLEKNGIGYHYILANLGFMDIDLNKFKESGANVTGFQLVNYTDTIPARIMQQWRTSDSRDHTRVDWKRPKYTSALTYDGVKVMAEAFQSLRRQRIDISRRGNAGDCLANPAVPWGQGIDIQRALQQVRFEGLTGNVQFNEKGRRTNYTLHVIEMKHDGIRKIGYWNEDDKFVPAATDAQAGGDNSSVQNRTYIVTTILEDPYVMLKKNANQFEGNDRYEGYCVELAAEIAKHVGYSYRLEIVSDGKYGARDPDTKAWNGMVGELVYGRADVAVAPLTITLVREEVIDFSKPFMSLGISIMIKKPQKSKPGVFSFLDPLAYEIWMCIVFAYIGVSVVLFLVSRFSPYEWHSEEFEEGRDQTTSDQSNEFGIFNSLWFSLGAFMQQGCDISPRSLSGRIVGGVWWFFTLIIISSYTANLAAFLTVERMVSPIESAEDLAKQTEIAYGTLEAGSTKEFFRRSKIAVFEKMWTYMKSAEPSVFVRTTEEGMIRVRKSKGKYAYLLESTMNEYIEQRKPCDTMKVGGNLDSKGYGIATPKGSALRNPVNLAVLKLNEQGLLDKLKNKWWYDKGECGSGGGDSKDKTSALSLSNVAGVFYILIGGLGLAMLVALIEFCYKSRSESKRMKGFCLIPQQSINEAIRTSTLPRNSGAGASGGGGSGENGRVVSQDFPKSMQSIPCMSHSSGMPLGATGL
Procedure: It depends upon the fact that when foreign mRNA is injected into Xenopus oocytes, the mRNA is translated into functional protein.
Either a λZAP cDNA preparation, or a plasmid containing the cDNA to be tested, are cut downstream from the cDNA insert with a restriction enzyme. The post-restriction digest is digested with Proteinase K and then extracted with two phenol: chloroform (1:1) extractions. The resulting DNA fragments are then ethanol precipitated. The precipitated fragments are mixed with either T3 RNA polymerase (to make sense strand), or T7 RNA polymerase (to make anti-sense strand), plus rATP, rCTP, rGTP, rUTP, and RNase inhibitor. Simultaneously, the RNA transcripts are capped with a sodium diguanosine triphosphate [G(5')ppp(5')G] cap. The water used for the above procedures is treated with diethylpyrocarbonate to inactivate RNases.
The in vitro synthesized mRNA transcripts are injected into Xenopus oocytes. 50 nl of an RNA solution, 0.2-0.6 mg/ml, is injected into the stage V oocytes. The injected oocytes are incubated at 16° C. in Barth's medium for 2-7 days before they are analyzed for the presence of functional receptors.
Voltage recordings are made by penetrating the oocyte with a micro-electrode filled with 3M KCl and connected to the bridge circuit of an appropriate voltage clamp unit, e.g., the Dagan 8500 voltage clamp unit. Voltage recordings are preferably obtained with two electrodes, a voltage electrode filled with 3M KCl and a current electrode filled with 0.25 M CsCl, 0.25 M CsF and 50 mM EGTA (ethylene glycol tetraacetic acid).
Oocytes employed herein are obtained from ovarian tissue from anesthetized adult female Xenopus. The ovarian tissue is treated with collagenase, 2 mg/ml, for two hours and then the ovarian epithelium and follicular cells are dissected away.
The plasmid pGluR1 was subsequently rescued from bacteriophage λZAPII-GluR1.
3 days prior to the recording. The oocytes were voltageclamped at -70 mV,
applied by rapid superfusion, with 5 minute intervals between drugs. Peak
currents were recorded; each number represents the average of 3 recording
from 3 different oocytes, ± SEM.
(§1) The data in FIG. 3B represent the responses of oocytes to the indicated agonists measured 3 days after injection with GluR1 (2 ng) or GluR3 (2 ng) RNA or adult rat brain hippocampus poly(A)^+ RNA (~50 ng). All values are normalized to the response obtained with […] and are presented as the mean±S.E.M. with n≥3 for all measurements.

[2] = target: T2, homomeric GluR6 receptor (Rattus norvegicus, UniProt P42260, I567V/Q621R/Y571C); assay: Current recording in Xenopus oocytes injected with GluR6 RNA (homomeric GluR6 receptor); assay type: cell-based; details: for current measured at -70 mV: 10 μM kainate
T2 construct: engineer a cDNA clone encoding the entire open reading frame of the GluR6 protein; expressed in transfected cells; host or cells: Xenopus oocytes injected with in vitro transcribed GluR6 RNA
T2 sequence (P42260 with tags, fused parts or gaps I567V/Y571C/Q621R): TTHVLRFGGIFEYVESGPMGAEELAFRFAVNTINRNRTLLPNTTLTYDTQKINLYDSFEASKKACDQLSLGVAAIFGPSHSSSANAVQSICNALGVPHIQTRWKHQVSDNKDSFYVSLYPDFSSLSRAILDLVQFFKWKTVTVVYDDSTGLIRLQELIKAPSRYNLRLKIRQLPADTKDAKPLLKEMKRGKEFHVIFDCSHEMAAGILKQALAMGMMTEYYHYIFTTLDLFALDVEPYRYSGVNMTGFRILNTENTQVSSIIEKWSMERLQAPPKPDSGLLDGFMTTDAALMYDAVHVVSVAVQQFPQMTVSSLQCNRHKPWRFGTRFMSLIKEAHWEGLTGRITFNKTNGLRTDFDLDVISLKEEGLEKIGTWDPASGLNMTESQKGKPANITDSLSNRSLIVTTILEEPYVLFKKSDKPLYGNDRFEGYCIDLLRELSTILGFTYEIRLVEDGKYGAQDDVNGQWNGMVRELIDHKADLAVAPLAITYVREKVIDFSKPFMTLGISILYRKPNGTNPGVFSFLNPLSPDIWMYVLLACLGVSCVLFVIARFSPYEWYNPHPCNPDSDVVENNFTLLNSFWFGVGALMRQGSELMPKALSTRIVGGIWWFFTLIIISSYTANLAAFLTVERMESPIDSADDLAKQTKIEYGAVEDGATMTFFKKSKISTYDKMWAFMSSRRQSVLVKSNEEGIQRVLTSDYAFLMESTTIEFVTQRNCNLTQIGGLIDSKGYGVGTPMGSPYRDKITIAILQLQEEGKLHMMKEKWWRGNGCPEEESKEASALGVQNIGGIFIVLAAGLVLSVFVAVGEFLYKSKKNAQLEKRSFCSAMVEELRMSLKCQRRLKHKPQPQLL

[3] = test system: GluR3; assay type: cell-based, rat
Procedure: Thus, oocytes were injected with in vitro synthesized RNA transcripts derived from individual cDNA clones.
as §1

[4] = test system: GluR5-1; assay type: cell-based, rat
Source text: (§2) In vitro synthesized GluR5-1 and GluR5-2 cRNAs were individually expressed in Xenopus oocytes.

[5] = target: GluR5-2 (Rattus norvegicus, UniProt P22756); assay type: cell-based
Chain of GluR5-2 (P22756 31-949): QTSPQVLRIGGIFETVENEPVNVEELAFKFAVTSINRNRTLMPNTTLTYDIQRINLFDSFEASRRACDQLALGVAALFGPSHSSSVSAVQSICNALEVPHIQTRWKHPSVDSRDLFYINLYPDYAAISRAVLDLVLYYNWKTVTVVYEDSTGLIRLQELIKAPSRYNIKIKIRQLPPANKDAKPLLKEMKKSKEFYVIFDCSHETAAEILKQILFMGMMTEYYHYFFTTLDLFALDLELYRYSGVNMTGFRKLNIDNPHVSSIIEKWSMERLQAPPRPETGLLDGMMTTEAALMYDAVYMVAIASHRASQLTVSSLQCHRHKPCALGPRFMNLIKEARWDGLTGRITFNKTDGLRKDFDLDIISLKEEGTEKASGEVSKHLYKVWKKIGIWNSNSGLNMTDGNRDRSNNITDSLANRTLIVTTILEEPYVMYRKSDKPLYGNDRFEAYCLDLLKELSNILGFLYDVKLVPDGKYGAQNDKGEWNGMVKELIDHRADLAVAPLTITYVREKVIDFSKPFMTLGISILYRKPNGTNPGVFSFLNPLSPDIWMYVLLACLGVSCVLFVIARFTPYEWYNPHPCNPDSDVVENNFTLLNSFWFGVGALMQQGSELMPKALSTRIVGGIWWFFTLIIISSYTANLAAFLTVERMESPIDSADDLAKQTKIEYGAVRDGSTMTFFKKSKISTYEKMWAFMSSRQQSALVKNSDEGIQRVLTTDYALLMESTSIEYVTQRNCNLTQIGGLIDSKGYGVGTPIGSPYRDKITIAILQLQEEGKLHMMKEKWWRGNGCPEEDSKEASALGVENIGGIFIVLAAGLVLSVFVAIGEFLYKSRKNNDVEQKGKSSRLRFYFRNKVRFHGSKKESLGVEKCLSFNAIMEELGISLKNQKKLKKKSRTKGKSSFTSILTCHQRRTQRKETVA
Source text: as §2

[6] = test system: oocytes injected with poly(A)+ RNA isolated from rat forebrain; assay type: cell-based; details: 2-10 days after injection
[7] = test system: oocytes injected with pool of in vitro transcripts from rat forebrain cDNA library; assay: Voltage recordings from oocytes injected with pooled in vitro transcripts of the λZAPII RTB1 cDNA library; assay type: cell-based; details: 10 days after injection
Procedure: A directional cDNA library (λZAPII RTB1; complexity: 8×10^5 elements), consisting of 18 independent sublibraries of 44,000 clones each, was constructed from this poly(A)^+ RNA using the bacteriophage expression vector λZAPII. A pool of in vitro transcripts, comprised of transcripts made separately from all 18 amplified sublibraries, was injected into oocytes. […] Subsequently, pools of 44,000 clones (=the single sublibraries), 4,000, 400 and 40 clones were tested.

[8] = oocytes held at -100 mV, without Con A, AMPA 100 μM
[9] = QUIS 10 μM, AMPA 50 μM, GLU 100 μM, NMDA 30 μM plus 10 μM glycine, APB 50 μM, -70 mV, 3 days after 2 ng RNA

**Q.** How did the “Compound Alone (%)” value [1] turn out when `O=C(O)[C@H]1CCCN[C@H]1C(=O)O` (relative stereo) [PDA, 2,3cis-piperidine dicarboxylic acid] was run?
**A.** The value was 2.5 ± 0.7%.

**Q.** How did the “response of Con A treated oocytes (in words)” value [2] turn out when `Cc1onc(O)c1CC(N)C(=O)O` (stereo not drawn) [AMPA, α-amino-3-hydroxy-5-methyl-isoxazole-4-propionic acid] was run?
**A.** Its value is “did not respond”.

**Q.** And the “effect of coapplication on kainate-evoked (1 μM) responses” value ([2]; AMPA 100 μM, Con A treated oocytes)?
**A.** The value was “no effect”.

**Q.** What about the “current evoked by agonist (in words)” value [2, 8] of the same compound?
**A.** The value was “did not evoke any detectable current”.

**Q.** What does the source list for `NC(CCP(=O)(O)O)C(=O)O` (stereo not shown) [APB, 2-amino-4-phosphonobutyric acid]?
**A.** response of oocytes to agonist (in words) [1, 9]: No detectable responses; response of oocytes to agonist (in words) [3, 9]: No detectable responses; membrane depolarization elicited by agonist (in words) ([4]; KA, AMPA 50 μM, quisqualate 10 μM, APB 100 μM, NMDA 100 μM with 10 μM glycine): did not elicit membrane depolarizations; membrane depolarization elicited by agonist (in words) ([5]; KA 100 MM, AMPA 50 μM, quisqualate 10 μM, APB 100 μM, NMDA 100 μM with 10 μM glycine): did not elicit membrane depolarizations; response to selective agonists (in words) [6]: gave no response

**Q.** How did the “Compound Alone (%)” value ([1]; % of the response evoked by 30 μM kainate immediately before drug application, compounds at 1 mM (kainate 30 μM), -70 mV, peak currents, 3 oocytes, ± SEM) turn out when `NC(CCCP(=O)(O)O)C(=O)O` (stereo not shown) [APV, 2amino-5-phospho-novaleric acid] was run?
**A.** The value was 3.1 ± 1.4%.

**Q.** For `N#Cc1cc2[nH]c(=O)c(=O)[nH]c2cc1[N+](=O)[O-]` [CNQX, 6-nitro-7-cyano-quinoxaline-2,3-dione], which “block of agonist-evoked responses (in words)” value [2] is on record?
**A.** The value was “blocked both quisqualate and kainate-evoked responses”.

**Q.** `O=C(O)C1CN(CCCP(=O)(O)O)CCN1` (stereo not shown) [CPP, 3 (2carboxypiperazin-4-yl)propyl-1-phosphate] was tested. Which “Compound Alone (%)” value [1] did it give?
**A.** Its value is 9.1 ± 0.7%.

**Q.** Which “Compound Alone (%)” value [1] does the source give for `CCOC(=O)CC[C@H](N)C(=O)OCC` [GDEE, glutamate diethylester] here?
**A.** Its value is 24.8 ± 5.7%.

**Q.** And the “agonist properties (in words)” value ([1]; each at 1 mM)?
**A.** Its value is “weak agonist properties”.

**Q.** For `O=C(O)c1cc(=O)c2ccccc2[nH]1` [Kynurenic acid], which “Compound Alone (%)” value [1] is on record?
**A.** Its value is 3.4 ± 0.2%.

**Q.** `CN[C@H](CC(=O)O)C(=O)O` [NMDA, N-methyl-D-aspartic acid] was tested. Which “response evoked by glutamate receptor agonists” value [1] did it give?
**A.** The value was “no responses”.

**Q.** And the “response of oocytes to agonist (in words)” value [1]?
**A.** The value was “No detectable responses”.

**Q.** What about the “response of oocytes to agonist (in words)” value [3] of the same compound?
**A.** Its value is “No detectable responses”.

**Q.** And the “membrane depolarization elicited by agonist (in words)” value [4]?
**A.** Its value is “did not elicit membrane depolarizations”.

**Q.** What about the “membrane depolarization elicited by agonist (in words)” value [5] of the same compound?
**A.** Its value is “did not elicit membrane depolarizations”.

**Q.** What about the “response of Con A treated oocytes (in words)” value [2] of the same compound?
**A.** Its value is “did not respond”.

**Q.** And the “response to selective agonists (in words)” value [6]?
**A.** The value was “elicited smooth responses with fast onsets”.

**Q.** And the “response to agonist (in words)” value [7]?
**A.** The value was “No responses”.

**Q.** For `NCC(=O)O` [glycine], which “potentiation of the KA response” value [1] is on record?
**A.** Its value is “did not potentiate”.

**Q.** What about the “response evoked by unrelated neurotransmitter receptor agonists” value [1] of the same compound?
**A.** Its value is “failed to evoke responses”.

**Q.** Which 100% current response ([1]; 30 μM kainate, -70 mV, depending on the oocyte) does the source give for `C=C(C)[C@H]1CN[C@H](C(=O)O)[C@H]1CC(=O)O` [kainate, kainic acid] here?
**A.** Its 100% current response is 40-200 nA.

**Q.** What about the “current measured at -70 mV” value ([2]; Con A treated, modified Ringer solution (NaCl substituted by sodium methanesulfonate)) of the same compound?
**A.** Its value is 330 nA.

**Q.** And the “current measured at -70 mV” value ([2]; Ringer solution, after Con A treatment)?
**A.** Its value is 2.3 μa.

**Q.** And the “current measured at -70 mV” value ([2]; Ringer solution, before Con A treatment)?
**A.** Its value is 30 nA.

**Q.** What about the “time for full recovery from desensitization” value ([2]; after 100 μM kainate for 30 seconds) of the same compound?
**A.** Its value is “approximately 15 minutes”.

**Q.** And the “response of Con A treated oocytes (in words)” value ([2]; aspartate 100 μM, NMDA 100 μM with 3 μM glycine, AMPA 10-1000 μM)?
**A.** The value was “responded”.

**Q.** What about the “current evoked by agonist (in words)” value [2, 8] of the same compound?
**A.** The value was “evoked inward currents that desensitized”.

**Q.** How did the “response evoked by unrelated neurotransmitter receptor agonists” value [1] turn out when `CN1CCCC1c1cccnc1` (stereo not shown) [nicotine] was run?
**A.** Its value is “failed to evoke responses”.

**Q.** What does the source list for `N[C@@H](Cn1oc(=O)[nH]c1=O)C(=O)O` [quisqualate, quisqualic acid]?
**A.** membrane depolarization elicited by agonist (in words) [5]: did not elicit membrane depolarizations; current evoked by agonist (in words) [2]: activated only small inward currents; effect on kainate-evoked current (in words) ([2]; without Con A): attenuated a subsequent kainate evoked current

**Q.** With `NCCc1c[nH]c2ccc(O)cc12` [serotonin] as the compound, how does the “response evoked by unrelated neurotransmitter receptor agonists” value ([1]; concentrations as high as 1 mM) read?
**A.** The value was “failed to evoke responses”.

**Q.** With `N[C@H](CCC(=O)NCC(=O)O)C(=O)O` [γ-DGG, D-glutamylglycine] as the compound, how does the “Compound Alone (%)” value [1] read?
**A.** Its value is -0.1 ± 0.5%.

**Q.** How did the “response evoked by unrelated neurotransmitter receptor agonists” value ([1]; concentrations as high as 1 mM) turn out when `NCCCC(=O)O` [γ-aminobutyric acid] was run?
**A.** Its value is “failed to evoke responses”.

**Q.** With concanavalin A [Con A] as the compound, how does the effect on desensitization ([2]; 10 μM Con A for 5 minutes) read?
**A.** The effect on desensitization was “efficiently decreases desensitization”.
